# What was measured:
# [1] = system: CAIX CAB-T co-cultured with CAIX+MDA-MB231; assay: Dasatinib inhibition of cytokine release of CAIX CAB-T; format: cell-based; settings: activated CAIX CAB-T, co-cultured overnight
# [2] = system: HER2 CAB-T co-cultured with SKBR3; assay: Dasatinib inhibition of cytokine release of HER2 CAB-T; format: cell-based; settings: activated HER2 CAB-T, co-cultured overnight
# [3] = system: HER2 CAB-T co-cultured with SKBR3; assay: Dasatinib inhibition of killing activity of HER2 CAB-T (LDH); settings: E:T 5:1, over 12 hours
# [4] = system: CAIX CAB-T co-cultured with CALX+MDA-MB231; settings: E:T 5:1, over 12 hours
# Protocol: Briefly, 5×10^4 effector cells (CAIX CAB-T or HER2 CAB-T) and 1×10^4 target cells (CALX+MDA-MB231 or SKBR3) were co-cultured with a gradient concentration of dasatinib (100 nM, 50 nM, 25 nM, 12.5 nM, 6.25 nM, 0 nM), Cytotoxicity of CAB-T to its target cells were determined in 2-hour intervals over a period of 12 hours [effector-to-target cell (E:T) ratio, 5:1].
compound,measurement,setting,value
Cc1nc(Nc2ncc(C(=O)Nc3c(C)cccc3Cl)s2)cc(N2CCN(CCO)CC2)n1 [dasatinib],dose at which IFNγ secretion is inhibited effectively,[1],around 25 nM
same,dose at which IL-2 secretion is inhibited effectively,[1],around 25 nM
same,dose at which IFNγ secretion is inhibited effectively,[2],around 25 nM
same,dose at which IL-2 secretion is inhibited effectively,[2],around 25 nM
same,dose at which cytotoxicity to target cells is inhibited effectively,[3],around 50 nM
same,dose at which cytotoxicity to target cells is inhibited effectively,[4],around 50 nM

# — US20220331416A1, “COMBINED EXPRESSION OF A CHIMERIC CD3 FUSION PROTEIN AND AN ANTI-CD3-BASED BISPECIFIC T CELL ACTIVATING ELEMENT” (BIOTHEUS (SUZHOU) CO., LTD., priority 2019, published 2022)
